Reference: ChEMBL document CHEMBL4680185, “Discovery of novel cyclin-dependent kinase (CDK) and histone deacetylase (HDAC) dual inhibitors with potent in vitro and in vivo anticancer activity” (Eur J Med Chem, 2020)
pIC50: −log10 of the molar value. Active and inactive are the calls of the source. The calls are words filed in the database; no cut-off is given here.

Experiments:
A-375 [1] = assay: cells; type: functional, cell-based; details: Homo sapiens, A-375, 72 h
Description: Antiproliferative activity against human A375 cells assessed as inhibition of cell growth incubated for 72 hrs by CCK-8 assay

NCI-H460 [2] = assay: cells; type: functional; details: Homo sapiens, time 72 hrs, read-out: GI
SMMC-7721 = assay: cells; type: functional, cell-based; details: Homo sapiens, SMMC-7721, 72 h
Description: Antiproliferative activity against human SMMC7721 cells assessed as inhibition of cell growth incubated for 72 hrs by CCK-8 assay

HCT-116 [3] = assay: cells; type: functional, cell-based; details: Homo sapiens, HCT-116, 72 h
Description: Antiproliferative activity against human HCT116 cells assessed as inhibition of cell growth incubated for 72 hrs by CCK-8 assay

HeLa = assay: cells; type: functional, cell-based; details: Homo sapiens, 72 h
Description: Antiproliferative activity against human Hela cells assessed as inhibition of cell growth incubated for 72 hrs by CCK-8 assay

HCT-116 [4] = assay: cells; type: functional; details: Homo sapiens, time 72 hrs, read-out: GI
NCI-H460 [5] = assay: cells; type: functional; details: Homo sapiens, time 72 hrs, read-out: GI; remark: listed apart in the source
HCT-116 [6] = assay: cells; type: functional; details: Homo sapiens, time 72 hrs, read-out: GI; remark: listed apart in the source
NCI-H460 [7] = assay: cells; type: functional, cell-based; details: Homo sapiens, NCI-H460, 72 h
Description: Antiproliferative activity against human H460 cells assessed as inhibition of cell growth incubated for 72 hrs by CCK-8 assay

NCI-H460 [8] = assay: Antimigratory activity against human H460 cells assessed as inhibition of cell migration at 0.5 uM measured after 48 hrs by cell scratch assay; type: functional, cell-based
HCT-116 [9] = assay: Induction of apoptosis in human HCT116 cells assessed as number of apoptotic cells at 2 uM incubated for 48 hrs by annexin V-FITC/PI based flow cytometric analysis relative to control; type: functional
A-375 [10] = assay: Induction of apoptosis in human A375 cells assessed as number of apoptotic cells at 2 uM incubated for 48 hrs by annexin V-FITC/PI based flow cytometric analysis relative to control; type: functional
[11] = target: Cyclin-dependent kinase 4/cyclin D1 (Homo sapiens, UniProt P11802); assay: Inhibition of recombinant human full length CDK4/cyclin D1 expressed in Sf9 cells incubated for 10 mins by ADP-Glo reagent assay
Cyclin-dependent kinase 4/cyclin D1, sequence (P11802 whole entry): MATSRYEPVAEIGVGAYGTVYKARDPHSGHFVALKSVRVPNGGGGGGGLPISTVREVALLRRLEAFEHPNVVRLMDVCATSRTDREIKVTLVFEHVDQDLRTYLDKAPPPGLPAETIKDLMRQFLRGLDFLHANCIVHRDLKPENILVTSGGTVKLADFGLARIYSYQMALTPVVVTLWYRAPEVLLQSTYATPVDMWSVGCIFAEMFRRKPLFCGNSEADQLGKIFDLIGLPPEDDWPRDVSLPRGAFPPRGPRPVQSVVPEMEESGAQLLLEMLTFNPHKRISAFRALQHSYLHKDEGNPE
Cyclin-dependent kinase 4/cyclin D1, sequence (P24385 whole entry, further chain): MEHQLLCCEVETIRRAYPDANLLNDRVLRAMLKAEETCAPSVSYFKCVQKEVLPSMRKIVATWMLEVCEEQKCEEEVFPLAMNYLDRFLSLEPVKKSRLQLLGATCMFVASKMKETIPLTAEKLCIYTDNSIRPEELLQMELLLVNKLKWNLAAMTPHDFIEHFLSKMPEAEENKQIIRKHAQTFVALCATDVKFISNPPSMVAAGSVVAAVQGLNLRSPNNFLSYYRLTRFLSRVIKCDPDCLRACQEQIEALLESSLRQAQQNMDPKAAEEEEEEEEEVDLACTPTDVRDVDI

CDK6/cyclin D3 = CDK6/cyclin D3 (Homo sapiens, UniProt Q00534); assay: Inhibition of recombinant human full length CDK6/cyclin D3 incubated for 10 mins by ADP-Glo reagent assay; type: protein-complex assay
CDK6/cyclin D3, sequence (P30281 whole entry): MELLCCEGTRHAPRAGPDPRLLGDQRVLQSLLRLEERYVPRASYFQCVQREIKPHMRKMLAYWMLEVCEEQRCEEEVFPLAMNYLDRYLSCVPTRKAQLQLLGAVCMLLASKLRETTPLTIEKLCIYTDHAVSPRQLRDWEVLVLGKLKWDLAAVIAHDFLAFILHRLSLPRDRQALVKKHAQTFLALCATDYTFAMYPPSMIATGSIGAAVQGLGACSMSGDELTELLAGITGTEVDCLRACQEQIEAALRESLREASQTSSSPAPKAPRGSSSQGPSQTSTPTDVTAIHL
CDK6/cyclin D3, sequence (Q00534 whole entry): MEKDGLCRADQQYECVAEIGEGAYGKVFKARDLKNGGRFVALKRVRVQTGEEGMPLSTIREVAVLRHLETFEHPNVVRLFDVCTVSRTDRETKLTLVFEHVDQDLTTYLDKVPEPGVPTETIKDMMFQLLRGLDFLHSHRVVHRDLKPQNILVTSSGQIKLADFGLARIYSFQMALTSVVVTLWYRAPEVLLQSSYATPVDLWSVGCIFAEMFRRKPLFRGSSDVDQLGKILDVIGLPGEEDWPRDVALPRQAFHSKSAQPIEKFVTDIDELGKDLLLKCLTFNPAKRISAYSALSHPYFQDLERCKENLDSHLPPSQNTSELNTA

[12] = Cytotoxicity against mouse NIH/3T3 cells incubated for 72 hrs by CCK-8 assay; type: cell-based; details: NIH3T3, 72 h
A-375 [13] = assay: Antimigratory activity against human A375 cells assessed as inhibition of cell migration at 0.25 uM measured after 48 hrs by cell scratch assay; type: functional, cell-based
[14] = target: Cyclin-dependent kinase 7/ cyclin H (Homo sapiens, UniProt P50613); assay: Inhibition of recombinant human full length CDK7/cyclin H1 expressed in Sf9 cells incubated for 10 mins by ADP-Glo reagent assay
Cyclin-dependent kinase 7/ cyclin H, sequence (P51946 whole entry): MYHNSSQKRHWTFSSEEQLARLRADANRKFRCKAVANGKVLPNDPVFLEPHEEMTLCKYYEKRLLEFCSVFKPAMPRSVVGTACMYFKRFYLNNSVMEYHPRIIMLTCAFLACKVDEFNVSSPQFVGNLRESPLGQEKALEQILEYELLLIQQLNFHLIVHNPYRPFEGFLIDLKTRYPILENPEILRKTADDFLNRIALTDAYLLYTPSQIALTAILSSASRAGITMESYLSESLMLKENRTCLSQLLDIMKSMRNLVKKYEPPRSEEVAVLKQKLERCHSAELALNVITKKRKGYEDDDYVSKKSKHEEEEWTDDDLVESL
Cyclin-dependent kinase 7/ cyclin H, sequence (P50613 whole entry): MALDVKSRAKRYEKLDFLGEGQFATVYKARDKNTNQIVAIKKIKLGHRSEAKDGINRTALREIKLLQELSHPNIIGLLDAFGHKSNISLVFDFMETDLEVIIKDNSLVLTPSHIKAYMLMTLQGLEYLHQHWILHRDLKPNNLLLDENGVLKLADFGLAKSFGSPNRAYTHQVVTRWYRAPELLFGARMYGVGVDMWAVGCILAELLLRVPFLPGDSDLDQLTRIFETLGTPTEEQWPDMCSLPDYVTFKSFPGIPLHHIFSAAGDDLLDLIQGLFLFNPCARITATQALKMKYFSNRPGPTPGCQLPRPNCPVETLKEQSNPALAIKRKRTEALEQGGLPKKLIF

Histone deacetylase 2 = Histone deacetylase 2 (Homo sapiens, UniProt Q92769); assay: Inhibition of human recombinant HDAC2 preincubated for 10 mins followed by addition of substrate fluor De Lys green measured after 30 mins by fluorescent plate reader analysis
Histone deacetylase 2, sequence (Q92769 whole entry): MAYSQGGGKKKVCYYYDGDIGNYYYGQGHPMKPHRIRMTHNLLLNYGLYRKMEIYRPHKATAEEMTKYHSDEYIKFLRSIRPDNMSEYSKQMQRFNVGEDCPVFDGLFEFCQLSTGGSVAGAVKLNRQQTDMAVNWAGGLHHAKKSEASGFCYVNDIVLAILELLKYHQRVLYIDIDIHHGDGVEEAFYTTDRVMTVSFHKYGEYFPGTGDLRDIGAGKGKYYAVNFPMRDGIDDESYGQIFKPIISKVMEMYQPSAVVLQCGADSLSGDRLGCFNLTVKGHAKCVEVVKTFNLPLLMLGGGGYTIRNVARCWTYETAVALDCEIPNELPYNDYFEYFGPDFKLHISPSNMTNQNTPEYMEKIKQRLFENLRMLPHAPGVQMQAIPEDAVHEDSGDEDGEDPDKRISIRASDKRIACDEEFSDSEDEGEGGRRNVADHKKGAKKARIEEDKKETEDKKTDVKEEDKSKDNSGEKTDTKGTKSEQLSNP

Row | SMILES | pIC50 (A-375 [1]) | pIC50 (SMMC-7721) | pIC50 (HCT-116 [3]) | pIC50 (HeLa) | pIC50 (NCI-H460 [7]) | pIC50 [11] | pIC50 (CDK6/cyclin D3) | pIC50 [14] | pIC50 (Histone deacetylase 2) | inhibition of growth at 8 µM (NCI-H460 [2]) [%] | inhibition of growth at 8 µM (HCT-116 [4]) [%] | inhibition of growth at 2 µM (NCI-H460 [5]) [%] | inhibition of growth at 2 µM (HCT-116 [6]) [%] | inhibition (NCI-H460 [8]) | Activity (HCT-116 [9]) [%] | Activity (A-375 [10]) [%] | pIC50 [12] | inhibition (A-375 [13])
1 | O=C(NO)c1ccc(CNC(=O)c2n[nH]cc2NC(=O)c2c(Cl)cccc2Cl)cc1 | 5.30 | 4.84 | 6.30 | 5.32 | 4.98 |  |  |  |  | 57.4 | 81.9 | 45.4 | 68.7 |  |  |  |  | 
2 | O=C(NO)c1ccc(CNC(=O)c2n[nH]cc2NC(=O)c2ccccc2Cl)cc1 | 5.19 | 4.66 | 5.62 | 4.79 | 5.21 |  |  |  |  | 29.8 | 71.6 | 26.6 | 53.8 |  |  |  |  | 
3 | O=C(Nc1ccc(F)cc1)c1n[nH]cc1NC(=O)c1c(F)cccc1F | 4.87 | 4.63 | 5.71 | 5.08 | 5.02 | < 6.00 | < 6.00 | < 6.00 |  | 59.1 | 74 | 21.3 | 57.6 | Active | 48 | 66.71 | 5.11 | Active
4 | Nc1ccccc1NC(=O)Cc1ccc(NC(=O)c2n[nH]cc2NC(=O)c2c(F)cccc2F)cc1 | 5.53 | 4.78 | 5.46 | 5.05 | 5.30 |  |  |  |  | 73.8 | 81.6 | 3.52 | 76.8 |  |  |  |  | 
5 | COc1ccccc1C(=O)Nc1c[nH]nc1C(=O)NCc1ccc(C(=O)Nc2ccccc2N)cc1 | 5.58 | 5.08 | 5.43 | 5.09 | 5.13 |  |  |  |  | 45.5 | 75.4 | 5.73 | 23.5 |  |  |  |  | 
6 | O=C(NO)c1ccc(CNC(=O)c2n[nH]cc2NC(=O)c2ccccc2F)cc1 | 5.52 | 4.78 | 5.66 | 5.18 | 4.62 |  |  |  |  | 57.1 | 77 | 23.5 | 51 |  |  |  |  | 
7 | O=C(Cc1ccc(NC(=O)c2n[nH]cc2NC(=O)c2c(Cl)cccc2Cl)cc1)NO | 5.34 | 4.91 | 5.62 | 5.15 | 5.16 |  |  |  |  | 75.1 | 75.8 | 10.5 | 62.1 |  |  |  |  | 
8 | O=C(NO)c1ccc(CNC(=O)c2n[nH]cc2NC(=O)c2c(F)cccc2F)cc1 |  |  |  |  |  |  |  |  |  | 7.33 | 64.5 | 0.46 | 25 |  |  |  |  | 
9 | Nc1ccccc1NC(=O)Cc1ccc(NC(=O)c2n[nH]cc2NC(=O)c2c(F)cccc2Cl)cc1 | 5.54 | 4.84 | 5.59 | 5.37 | 5.27 |  |  |  |  | 75.1 | 74.3 | 16.4 | 60.4 |  |  |  |  | 
10 | O=C(Cc1ccc(NC(=O)c2n[nH]cc2NC(=O)c2ccccc2F)cc1)NO |  |  |  |  |  |  |  |  |  | 21.4 | 14.3 | 9.5 | 1.04 |  |  |  |  | 
11 | Nc1ccc(F)cc1NC(=O)c1ccc(CNC(=O)/C=C/c2cccnc2)cc1 | 5.39 | 4.59 | 5.56 | 4.83 | < 4.49 |  |  |  | 7.64 | 38.2 | 72.2 | 1.73 | 64.4 | Active | 44.3 | 62.6 | 5.61 | Active

More lines, main results first:

Row | pIC50 (A-375 [1]) | pIC50 (SMMC-7721) | pIC50 (HCT-116 [3]) | pIC50 (HeLa) | pIC50 (NCI-H460 [7]) | pIC50 [11] | pIC50 (CDK6/cyclin D3) | pIC50 [14] | pIC50 (Histone deacetylase 2) | SMILES | inhibition of growth at 8 µM (NCI-H460 [2]) [%] | inhibition of growth at 8 µM (HCT-116 [4]) [%] | inhibition of growth at 2 µM (NCI-H460 [5]) [%] | inhibition of growth at 2 µM (HCT-116 [6]) [%] | inhibition (NCI-H460 [8]) | Activity (HCT-116 [9]) [%] | Activity (A-375 [10]) [%] | pIC50 [12] | inhibition (A-375 [13])
12 | 5.77 | 4.82 | 5.95 | 5.35 | 5.11 |  |  |  |  | Nc1ccccc1NC(=O)c1ccc(CNC(=O)c2n[nH]cc2NC(=O)c2c(F)cccc2F)cc1 | 80.5 | 79.1 | 13.9 | 73.1 |  |  |  |  | 
13 | 5.68 | 4.89 | 6.05 | 4.98 | 5.20 |  |  |  |  | Nc1ccccc1NC(=O)c1ccc(CNC(=O)c2n[nH]cc2NC(=O)c2ccccc2Cl)cc1 | 17.4 | 84.4 | 5.54 | 63.7 |  |  |  |  | 
14 | 5.92 | 4.79 | 6.15 | 5.49 | 5.44 |  |  |  |  | Nc1ccccc1NC(=O)c1ccc(CNC(=O)c2n[nH]cc2NC(=O)c2c(F)cccc2Cl)cc1 | 75 | 83.8 | 50.1 | 78.7 |  |  |  |  | 
15 | 5.80 | 5.18 | 5.78 | 5.39 | 5.20 |  |  |  |  | Nc1ccccc1NC(=O)c1ccc(CNC(=O)c2n[nH]cc2NC(=O)c2ccccc2)cc1 | 61.7 | 88.6 | 11.8 | 62.9 |  |  |  |  | 
16 | 5.64 | 5.16 | 5.32 | 5.46 | 5.00 |  |  |  |  | Nc1ccccc1NC(=O)c1ccc(CNC(=O)c2n[nH]cc2NC(=O)c2ccccc2F)cc1 | 57.6 | 81.2 | 7.25 | 39.8 |  |  |  |  | 
